# Data as given in patent US6358885B1, “Substituted phenylheterocyclic herbicides” (Mississippi State University, priority 1992, dated 2002).
# Tests used:
# [1] = tested on: barley; assay: Test B preemergence/postemergence greenhouse plant response rating 0 to 10; type: in vivo, Hordeum vulgare; conditions: 0 to 10 scale
# Outline: (§1)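 Postemergence treatment of plants two to eighteen cm tall ran alongside preemergence treatment of planted seed, each using compound in a non-phytotoxic solvent.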
# [2] = tested on: bedstraw; assay: as above; type: in vivo, Galium aparine; conditions: 0 to 10 scale
# Outline: as §1
# [3] = tested on: blackgrass; assay: as above; type: in vivo, Alopecurus myosuroides; conditions: 0 to 10 scale
# Outline: as §1
# [4] = tested on: cheatgrass; assay: as above; type: in vivo, Bromus secalinus; conditions: 0 to 10 scale
# Outline: as §1
# [5] = tested on: cocklebur; assay: as above; type: in vivo, Xanthium pensylvanicum; conditions: 0 to 10 scale
# Outline: as §1
# [6] = tested on: cotton; assay: as above; type: in vivo, Gossypium hirsutum; conditions: 0 to 10 scale
# Outline: as §1
# [7] = tested on: rice; assay: as above; type: in vivo, Oryza sativa; conditions: 0 to 10 scale
# Outline: as §1
# [8] = tested on: wild buckwheat; assay: as above; type: in vivo, Polygonum convolvulus; conditions: 0 to 10 scale
# Outline: as §1
# [9] = tested on: blackgrass; assay: Test C preemergence/postemergence greenhouse plant response rating 0 to 100; type: in vivo, Alopecurus myosuroides; conditions: POSTEMERGENCE; for Plant response rating, Blackgrass: 0 to 100 scale
# Outline: (§2)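 Compounds in non-phytotoxic solvent applied preemergence to sandy loam one day after planting, postemergence at the 1–4 leaf stage, or to ~2.5 cm floodwater over silt loam.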
# [10] = tested on: corn; assay: as above; type: in vivo, Zea mays; conditions: POSTEMERGENCE; for Plant response rating, Corn: 0 to 100 scale
# Outline: as §2
# [11] = tested on: giant foxtail; assay: as above; type: in vivo, Setaria faberii; conditions: POSTEMERGENCE; for Plant response rating, Giant foxtail: 0 to 100 scale
# Outline: as §2
# [12] = tested on: lambsquarters; assay: as above; type: in vivo, Chenopodium album; conditions: POSTEMERGENCE; for Plant response rating Lambsquarters: 0 to 100 scale
# Outline: as §2
# [13] = tested on: rape; assay: as above; type: in vivo, Brassica napus; conditions: POSTEMERGENCE; for Plant response rating, Rape: 0 to 100 scale
# Outline: as §2
# [14] = tested on: ryegrass; assay: as above; type: in vivo, Lolium multiflorum; conditions: POSTEMERGENCE; for Plant response rating Ryegrass: 0 to 100 scale
# Outline: as §2
# [15] = tested on: sugar beet; assay: as above; type: in vivo, Beta vulgaris; conditions: POSTEMERGENCE; for Plant response rating, Sugar beet: 0 to 100 scale
# Outline: as §2
# [16] = tested on: wheat; assay: as above; type: in vivo, Triticum aestivum; conditions: POSTEMERGENCE; for Plant response rating, Wheat: 0 to 100 scale
# Outline: as §2
# [17] = tested on: duck salad; assay: Test C flood test plant response rating 0 to 100; type: in vivo, Heteranthera limosa; conditions: for Plant response rating Duck salad: flood test species listed under POSTEMERGENCE, 0 to 100 scale
# Outline: as §2
# [18] = tested on: barnyardgrass; assay: Test C flood test plant response rating 0 to 100; type: in vivo, Echinochloa crus-galli; conditions: for Plant response rating Barnyardgrass 2: flood test species listed under POSTEMERGENCE, 0 to 100 scale
# Outline: as §2
# [19] = POSTEMERGENCE section, flood test, Rate 4 g/ha
# [20] = Rate 16 g/ha, under POSTEMERGENCE head (flood test species)
compound,measurement,setting,value
CC(C)OC(=O)c1cc(-c2nn3c(c2Cl)CCCC3)c(F)cc1Cl [Compound 44],"Plant response rating, Barley","[1]; POSTEMERGENCE, Rate 50 g/ha",4
same,"Plant response rating, Barley","[1]; POSTEMERGENCE, Rate 200 g/ha",6
same,"Plant response rating, Barley","[1]; PREEMERGENCE, Rate 50 g/ha",1
same,"Plant response rating, Barley","[1]; Rate 200 g/ha, PREEMERGENCE",2
same,"Plant response rating, Bedstraw","[2]; POSTEMERGENCE, Rate 50 g/ha",9
same,"Plant response rating, Bedstraw","[2]; POSTEMERGENCE, Rate 200 g/ha",9
same,"Plant response rating, Bedstraw","[2]; PREEMERGENCE, Rate 50 g/ha",8
same,"Plant response rating, Bedstraw","[2]; Rate 200 g/ha, PREEMERGENCE",10
same,"Plant response rating, Blackgrass","[3]; POSTEMERGENCE, Rate 50 g/ha",8
same,"Plant response rating, Blackgrass","[3]; POSTEMERGENCE, Rate 200 g/ha",9
same,"Plant response rating, Blackgrass","[3]; PREEMERGENCE, Rate 50 g/ha",4
same,"Plant response rating, Blackgrass","[3]; Rate 200 g/ha, PREEMERGENCE",6
same,"Plant response rating, Cheatgrass","[4]; POSTEMERGENCE, Rate 50 g/ha",7
same,"Plant response rating, Cheatgrass","[4]; POSTEMERGENCE, Rate 200 g/ha",10
same,"Plant response rating, Cheatgrass","[4]; PREEMERGENCE, Rate 50 g/ha",2
same,"Plant response rating, Cheatgrass","[4]; Rate 200 g/ha, PREEMERGENCE",6
same,"Plant response rating, Cocklebur","[5]; POSTEMERGENCE, Rate 50 g/ha",9
same,"Plant response rating, Cocklebur","[5]; POSTEMERGENCE, Rate 200 g/ha",10
same,"Plant response rating, Cocklebur","[5]; PREEMERGENCE, Rate 50 g/ha",6
same,"Plant response rating, Cocklebur","[5]; Rate 200 g/ha, PREEMERGENCE",9
same,"Plant response rating, Cotton","[6]; POSTEMERGENCE, Rate 50 g/ha",10
same,"Plant response rating, Cotton","[6]; POSTEMERGENCE, Rate 200 g/ha",10
same,"Plant response rating, Cotton","[6]; PREEMERGENCE, Rate 50 g/ha",1
same,"Plant response rating, Cotton","[6]; Rate 200 g/ha, PREEMERGENCE",8
same,"Plant response rating, Rice","[7]; POSTEMERGENCE, Rate 50 g/ha",5
same,"Plant response rating, Rice","[7]; PREEMERGENCE, Rate 50 g/ha",1
same,"Plant response rating, Rice","[7]; Rate 200 g/ha, POSTEMERGENCE",9
same,"Plant response rating, Rice","[7]; Rate 200 g/ha, PREEMERGENCE",2
same,"Plant response rating, Wild buckwheat","[8]; POSTEMERGENCE, Rate 50 g/ha",10
same,"Plant response rating, Wild buckwheat","[8]; PREEMERGENCE, Rate 50 g/ha",9
same,"Plant response rating, Wild buckwheat","[8]; Rate 200 g/ha, POSTEMERGENCE",10
same,"Plant response rating, Wild buckwheat","[8]; Rate 200 g/ha, PREEMERGENCE",9
same,"Plant response rating, Blackgrass",[9]; 62 g/ha,60
same,"Plant response rating, Blackgrass",[9]; 250 g/ha,80
same,"Plant response rating (0 to 100), Blackgrass",[9]; Rate 4 g/ha,30
same,"Plant response rating (0 to 100), Blackgrass",[9]; Rate 16 g/ha,40
same,"Plant response rating, Corn",[10]; 62 g/ha,50
same,"Plant response rating, Corn",[10]; 250 g/ha,90
same,"Plant response rating (0 to 100), Corn",[10]; Rate 4 g/ha,30
same,"Plant response rating (0 to 100), Corn",[10]; Rate 16 g/ha,40
same,"Plant response rating, Giant foxtail",[11]; 62 g/ha,60
same,"Plant response rating, Giant foxtail",[11]; 250 g/ha,100
same,"Plant response rating (0 to 100), Giant foxtail",[11]; Rate 4 g/ha,20
same,"Plant response rating (0 to 100), Giant foxtail",[11]; Rate 16 g/ha,40
same,Plant response rating Lambsquarters,[12]; 62 g/ha,100
same,Plant response rating Lambsquarters,[12]; 250 g/ha,100
same,"Plant response rating (0 to 100), Lambsquarters",[12]; Rate 4 g/ha,90
same,"Plant response rating (0 to 100), Lambsquarters",[12]; Rate 16 g/ha,100
same,"Plant response rating, Rape",[13]; 62 g/ha,100
same,"Plant response rating, Rape",[13]; 250 g/ha,100
same,"Plant response rating (0 to 100), Rape",[13]; Rate 4 g/ha,40
same,"Plant response rating (0 to 100), Rape",[13]; Rate 16 g/ha,70
same,Plant response rating Ryegrass,[14]; 62 g/ha,50
same,Plant response rating Ryegrass,[14]; 250 g/ha,90
same,"Plant response rating (0 to 100), Ryegrass",[14]; Rate 4 g/ha,20
same,"Plant response rating (0 to 100), Ryegrass",[14]; Rate 16 g/ha,30
same,"Plant response rating, Sugar beet",[15]; 62 g/ha,100
same,"Plant response rating, Sugar beet",[15]; 250 g/ha,100
same,"Plant response rating (0 to 100), Sugar beet",[15]; Rate 4 g/ha,80
same,"Plant response rating (0 to 100), Sugar beet",[15]; Rate 16 g/ha,100
same,"Plant response rating, Wheat",[16]; 62 g/ha,50
same,"Plant response rating, Wheat",[16]; 250 g/ha,80
same,"Plant response rating (0 to 100), Wheat",[16]; Rate 4 g/ha,20
same,"Plant response rating (0 to 100), Wheat",[16]; Rate 16 g/ha,30
same,"Plant response rating (0 to 100), Duck salad",[17]; [19],0
same,"Plant response rating (0 to 100), Duck salad",[17]; [20],30
same,Plant response rating Duck salad,[17]; 62 g/ha,70
same,Plant response rating Duck salad,[17]; 250 g/ha,90
same,"Plant response rating (0 to 100), Barnyardgrass 2",[18]; [19],65
same,"Plant response rating (0 to 100), Barnyardgrass 2",[18]; [20],100
same,Plant response rating Barnyardgrass 2,[18]; 62 g/ha,100
same,Plant response rating Barnyardgrass 2,[18]; 250 g/ha,100
